In ChEMBL document CHEMBL1201862, “PubChem BioAssay data set” (2004):
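Five compound concentrations were applied to cells in 96-well plates for 48 hours; endpoints were derived by simple linear interpolation of the resulting dose-response curve. GI50: concentration for 50% inhibition of growth.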 The source made the active and inactive calls. No stated cut-off is given here; in the data, active = GI50 up to about 1.1 µM and inactive = higher.

Legend:
Experiment in all cases: inhibition of tumour cell growth, NCI panel, 48 h
[1] = tested on: DU-145
[2] = tested on: U-251
[3] = tested on: IGROV-1
[4] = tested on: NCI-H460
[5] = tested on: SF-539
[6] = tested on: HCT-15
[7] = tested on: MDA-MB-435
[8] = tested on: SF-295
[9] = tested on: UACC-62
[10] = tested on: MCF7
[11] = tested on: SK-MEL-28
[12] = tested on: HOP-62
[13] = tested on: OVCAR-5
[14] = tested on: SNB-75
[15] = tested on: HCC 2998
[16] = tested on: MOLT-4
[17] = tested on: T47D
[18] = tested on: HL-60

SMILES	GI50 [1]	GI50 [2]	GI50 [3]	GI50 [4]	GI50 [5]	GI50 [6] [µM]	GI50 [7]	GI50 [8]	GI50 [9]	GI50 [10]	GI50 [11]	GI50 [12]	GI50 [13]	GI50 [14]	GI50 [15]	GI50 [16]	GI50 [17]	GI50 [18]
CCC1(N)C(=O)OCc2c1cc1n(c2=O)Cc2cc3ccccc3nc2-1 (stereo unspecified)	2.65 µM (inactive)	6.73 µM (inactive)	6.56 µM (inactive)	0.47 µM (active)	4.04 µM (inactive)	32.7	54.6 µM (inactive)	5.31 µM (inactive)	2.75 µM (inactive)	2.14 µM (inactive)	> 93.1 µM (inactive)	5.69 µM (inactive)	44.5 µM (inactive)	8.36 µM (inactive)	38.4 µM (inactive)	0.871 µM (active)	2.35 µM (inactive)	1.74 µM (inactive)
C#C[C@]1(O)CC[C@H]2[C@@H]3CCC4=C/C(=N\OCCN(CC)CC)CC[C@]4(C)[C@H]3CC[C@@]21C	10.4 µM (inactive)	8.04 µM (inactive)	3.85 µM (inactive)	5.08 µM (inactive)	4.26 µM (inactive)	5.6	3.27 µM (inactive)	2.16 µM (inactive)	3.44 µM (inactive)	4.29 µM (inactive)	7.66 µM (inactive)	3.58 µM (inactive)	12.9 µM (inactive)	3.05 µM (inactive)	10.2 µM (inactive)	0.122 µM (active)	6.3 µM (inactive)	0.586 µM (active)
O=C(NCCCNCCN1C(=O)c2cccc3cc([N+](=O)[O-])cc(c23)C1=O)c1cc(-c2ccccc2)nc2ccccc12	5.21 µM (inactive)	2.09 µM (inactive)	2.54 µM (inactive)	1.55 µM (inactive)	1.98 µM (inactive)	3.03	1.46 µM (inactive)	3.08 µM (inactive)	5.12 µM (inactive)	2.17 µM (inactive)	1.85 µM (inactive)	6.49 µM (inactive)	3.94 µM (inactive)	3.62 µM (inactive)	1.49 µM (inactive)	0.347 µM (active)	8.07 µM (inactive)	1.76 µM (inactive)
CN(C)CCCN1c2ccc([N+](=O)[O-])cc2CCc2cc([N+](=O)[O-])ccc21	17.4 µM (inactive)	13.7 µM (inactive)	14.6 µM (inactive)	12.6 µM (inactive)	18.3 µM (inactive)	17.4	14.5 µM (inactive)	15.6 µM (inactive)	14.7 µM (inactive)	15.6 µM (inactive)	15 µM (inactive)	12.5 µM (inactive)	13.9 µM (inactive)	15.3 µM (inactive)	11.9 µM (inactive)	10.1 µM (inactive)	16.1 µM (inactive)	14.1 µM (inactive)
CC1(c2cccc(Cl)c2)CC(c2cccc(Cl)c2)=C(C#N)C(=C(C#N)C#N)N1 (stereo unspecified)	15.8 µM (inactive)	16.4 µM (inactive)	16.7 µM (inactive)	27.6 µM (inactive)	19.1 µM (inactive)	16	17 µM (inactive)	16 µM (inactive)	17 µM (inactive)	20.6 µM (inactive)	20.7 µM (inactive)	19.4 µM (inactive)	24.2 µM (inactive)	19.1 µM (inactive)	15.8 µM (inactive)	12.5 µM (inactive)	13.2 µM (inactive)	18.4 µM (inactive)
COn1cc(CO)c2ccccc21	53.1 µM (inactive)	69.7 µM (inactive)	22 µM (inactive)	> 100 µM (inactive)	> 100 µM (inactive)	> 88.7	> 100 µM (inactive)	> 100 µM (inactive)	43.3 µM (inactive)	52.7 µM (inactive)	> 100 µM (inactive)	> 100 µM (inactive)	7.96 µM (inactive)	> 100 µM (inactive)	32.8 µM (inactive)	28.8 µM (inactive)	30.8 µM (inactive)	31.3 µM (inactive)
CCOC(=O)C1c2[nH]c3ccccc3c2CCN1C(=O)c1ccc(OC)o1 (stereo unspecified)	> 10 µM (inactive)	> 10 µM (inactive)	> 10 µM (inactive)	> 10 µM (inactive)	> 10 µM (inactive)	> 10	> 10 µM (inactive)	> 10 µM (inactive)	–	> 10 µM (inactive)	> 10 µM (inactive)	> 10 µM (inactive)	> 10 µM (inactive)	5.78 µM (inactive)	> 10 µM (inactive)	> 10 µM (inactive)	> 10 µM (inactive)	> 10 µM (inactive)
Cc1ccc(F)cc1NC(=O)O/N=C(\Cl)C(C)C	18.2 µM (inactive)	23.3 µM (inactive)	17.2 µM (inactive)	29.2 µM (inactive)	7.21 µM (inactive)	1.82	13 µM (inactive)	28.5 µM (inactive)	13.2 µM (inactive)	6.4 µM (inactive)	15.8 µM (inactive)	19.5 µM (inactive)	15.4 µM (inactive)	14.8 µM (inactive)	16.2 µM (inactive)	1.6 µM (inactive)	4.73 µM (inactive)	2.32 µM (inactive)
C#C[C@]1(O)CC[C@H]2[C@@H]3CCC4=C/C(=N/NC(=O)c5cccc6cc7ccccc7nc56)CC[C@@H]4[C@H]3CC[C@@]21CC	> 100 µM (inactive)	> 100 µM (inactive)	87.9 µM (inactive)	36.3 µM (inactive)	33.9 µM (inactive)	56	91.4 µM (inactive)	–	95.5 µM (inactive)	38.4 µM (inactive)	> 100 µM (inactive)	67.9 µM (inactive)	77.3 µM (inactive)	> 100 µM (inactive)	> 100 µM (inactive)	0.0942 µM (active)	21 µM (inactive)	48 µM (inactive)
O=c1[nH]c(Nc2ccc(Br)c(C(F)(F)F)c2)nc2[nH]cnc12	55 µM (inactive)	36.1 µM (inactive)	40.4 µM (inactive)	45.2 µM (inactive)	34.5 µM (inactive)	76	30.7 µM (inactive)	54.1 µM (inactive)	23.8 µM (inactive)	51.5 µM (inactive)	36.6 µM (inactive)	48.8 µM (inactive)	32.3 µM (inactive)	25.6 µM (inactive)	17.9 µM (inactive)	32 µM (inactive)	32.7 µM (inactive)	26 µM (inactive)
C/C(=N\N=C(/S)N(C)C)c1cccnn1	0.889 µM (active)	0.977 µM (active)	0.689 µM (active)	0.394 µM (active)	0.513 µM (active)	0.468	1.42 µM (inactive)	0.879 µM (active)	0.486 µM (active)	0.726 µM (active)	1.29 µM (inactive)	1.05 µM (active)	1.06 µM (active)	2.03 µM (inactive)	7.46 µM (inactive)	0.188 µM (active)	0.916 µM (active)	0.365 µM (active)
